From article PMC6071991, “Hydroxylated Polybrominated Biphenyl Ethers Exert Estrogenic Effects via Non-Genomic G Protein–Coupled Estrogen Receptor Mediated Pathways” (Environmental Health Perspectives, 2018)
Where two headings read alike, the source gives them in different places. One block for each compound: values may come before it.

How the values were obtained:
[1] = tested on: GPER-mediated signaling in SKBR3 cells; assay: cAMP assay in SKBR3 cells; format: cell-based, human; conditions: for LOEC, cAMP production / significant dose-dependent increase in cAMP production compared to control: SKBR3 cells; for LOEC, cAMP production: 30 min treatment
Protocol: SKBR3 cells ( 2×10^4 cells) were seeded in 96-well microplates which were precoated with a capture antibody for the cAMP-antibody complex (Invitrogen). […].

[2] = tested on: SKBR3 cells; assay: Wound-healing cell migration assay; format: cell-based, human; conditions: for LOEC, SKBR3 cell migration, wound-healing assay: 48 h; for LOECs, promotion of SKBR3 cell migration via GPER pathways: abstract summary over Boyden chamber and wound-healing assays
Protocol: For the wound-healing assays, SKBR3 cells were seeded in 12-well microplates at a density of 2.5×10^5 cells/well, incubated first in phenol red–free RPMI 1640 with 10% FBS for 12 h and then in phenol red–free RPMI 1640 without FBS for another 12 h. The cell layer was wounded with a sterile 200-μL pipet tip and washed 3 times with phenol red–free RPMI 1640. […] The closure of the scratch was photographed using an inverted microscope (ROCTEC) coupled to a camera (Canon). The change in the scratch area was evaluated using Image-Pro Plus 6.0 (Media Cybernetics). The relative cell migration was calculated by comparing the change in the wound area in the treated wells with those in the control wells.

[3] = tested on: SKBR3 cells; assay: Boyden chamber cell migration assay; format: cell-based, human; conditions: for LOEC, SKBR3 cell migration, Boyden chamber assay: 48 h
Protocol: SKBR3 cell migration was evaluated using Boyden chamber and wound-healing assays as described previously with slight modification ([Cao et al. 2017]). For the Boyden chamber assay, 24-well plates containing cell culture inserts with 8-μm pore size (Corning) were used. The cells ( 8×10^4 cells, 100μL ) were seeded in the upper chamber, and the lower chamber was supplied with 600μL phenol red–free RPMI 1640 with 10% FBS (Invitrogen). After 12 h, the cells were incubated with phenol red–free RPMI 1640 without FBS for another 12 h. […] After incubation for 48 h, the cells on the upper side of the insert membrane were removed with cotton swabs, and the cells on the lower surface of the membrane were fixed with methanol for 10 min and stained with 0.1% crystal violet (Sigma-Aldrich). Then, the cells were counted under an inverted microscope (ROCTEC) coupled to a camera (Canon), and six fields were randomly chosen per chamber. The relative cell migration was determined by comparing the average number of cells in the six fields of the treated chamber to those in the control chamber.

[4] = target: T1, GPER (Homo sapiens, UniProt Q99527); assay: cell-based
T1 sequence (Q99527 whole entry): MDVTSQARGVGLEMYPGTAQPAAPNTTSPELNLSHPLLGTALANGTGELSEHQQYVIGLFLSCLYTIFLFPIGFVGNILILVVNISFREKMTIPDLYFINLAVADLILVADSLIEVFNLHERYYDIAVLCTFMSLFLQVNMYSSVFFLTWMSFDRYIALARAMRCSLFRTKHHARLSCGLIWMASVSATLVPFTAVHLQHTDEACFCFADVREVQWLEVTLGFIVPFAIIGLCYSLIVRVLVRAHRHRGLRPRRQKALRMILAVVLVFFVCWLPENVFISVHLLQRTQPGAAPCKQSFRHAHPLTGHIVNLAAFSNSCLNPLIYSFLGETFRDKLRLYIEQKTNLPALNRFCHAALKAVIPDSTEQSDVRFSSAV

[5] = target: T1, GPER; assay: SKBR3 cell-based fluorescence competitive binding assay (E2-F probe, flow cytometry)
[6] = tested on: human GPER; set-up: method as in Thomas and Dong 2006; conditions: ref Thomas and Dong 2006; cited from earlier work
[7] = tested on: GPER-mediated signaling in SKBR3 cells; assay: Calcium mobilization assay in SKBR3 cells; format: cell-based, human; conditions: for LOECs, activation of GPER signaling pathways: abstract summary over calcium mobilization and cAMP accumulation in SKBR3 cells; for significant dose-dependent increase in calcium mobilization compared to control: SKBR3 cells
[8] = tested on: ERα; set-up: method as in Li et al. 2013; conditions: ref Li et al. 2013; cited from earlier work
[9] = tested on: zebrafish GPER; set-up: method as in Fitzgerald et al. 2015; conditions: ref Fitzgerald et al. 2015, cited from earlier work; for binding to zebrafish GPER at a single tested concentration: 1μM
[10] = tested on: rats; conditions: exposure of pregnant rats, 1–10mg/kg, cited from earlier work
[11] = tested on: SH-SY5Y cells; set-up: method as in Tian et al. 2016; conditions: activity inhibited by GPER antagonist G15; ref Tian et al. 2016; cited from earlier work
[12] = ratio between IC50 of E2 and compounds, E2 = 100%
[13] = E2-treated SKBR3 cells, G15 pretreatment 2 h

Compound: C[C@]12CC[C@@H]3c4ccc(O)cc4CC[C@H]3[C@@H]1CC[C@@H]2O [E2, 17β-estradiol, reference compound]
- LOEC, cAMP production [1]: 1 nM
- LOEC, SKBR3 cell migration, wound-healing assay [2]: 1 nM
- LOEC, SKBR3 cell migration, Boyden chamber assay [3]: 1 nM

Compound: CC(=O)c1ccc2c(c1)C1C=CCC1C(c1cc3c(cc1Br)OCO3)N2 (stereo not drawn) [G1, reference compound]
- LOEC, cAMP production [1]: 1 nM
- LOEC, SKBR3 cell migration, wound-healing assay [2]: 1 nM
- LOEC, SKBR3 cell migration, Boyden chamber assay [3]: 1 nM

Compound: Oc1c(Br)c(Br)c(Oc2c(Br)cc(Br)c(Br)c2Br)c(Br)c1Br [4ʹ-OH-BDE-201, 4'-hydroxy-2,2',3,3',4,5',6,6'-octabromodiphenyl ether]
- IC50 [4]: 5.3 µM
- RBA (relative binding affinity) [5, 12]: 4.9%

Compound: O=C1C2(Cl)C3(Cl)C4(Cl)C(Cl)(Cl)C5(Cl)C3(Cl)C1(Cl)C5(Cl)C24Cl (stereo not drawn) [kepone]
- RBA to human GPER compared to E2 [6]: 1.3–13.4%

Compound: Oc1cc(Oc2cc(Br)c(Br)cc2Br)c(Br)cc1Br [5ʹ-OH-BDE-099, 5'-hydroxy-2,2',4,4',5-pentabromodiphenyl ether]
- LOECs, activation of GPER signaling pathways [7]: 10 to 100 nM
- LOEC, SKBR3 cell migration, wound-healing assay [2]: 100 nM
- LOECs, promotion of SKBR3 cell migration via GPER pathways [2]: 0.1 to 1 µM
- LOEC, SKBR3 cell migration, Boyden chamber assay [3]: 100 nM
- type of activity on ERα [8]: antagonists
- IC50 [4]: 1.3 µM

Compound: Oc1cc(Br)c(Br)c(Br)c1Oc1ccc(Br)cc1Br [6-OH-BDE-085, 6-hydroxy-2,2',3,4,4'-pentabromodiphenyl ether]
- type of activity on ERα [8]: antagonists

Compound: Oc1c(Br)c(Br)c(Br)c(Br)c1Oc1cc(Br)c(Br)cc1Br [6-OH-BDE-180, 6-hydroxy-2,2',3,4,4',5,5'-heptabromodiphenyl ether]
- IC50 [4]: 4.8 µM
- RBA (relative binding affinity) [5, 12]: 5.4%

Compound: CC(C)(c1cc(Cl)c(O)c(Cl)c1)c1cc(Cl)c(O)c(Cl)c1 [tetrachlorobisphenol A]
- binding to zebrafish GPER at a single tested concentration [9]: effective binding

Compound: CC(C)(c1cc(Br)c(O)c(Br)c1)c1cc(Br)c(O)c(Br)c1 [tetrabromobisphenol A]
- binding to zebrafish GPER at a single tested concentration [9]: effective binding

Compound: Brc1cc2c(cc1[C@@H]1Nc3ccccc3[C@@H]3C=CC[C@@H]31)OCO2 [G15, reference compound]
- calcium mobilization after G15 pretreatment versus vehicle pretreatment [7, 13]: significantly lower
- cAMP production after G15 pretreatment versus vehicle pretreatment [1, 13]: significantly lower
- cell migration after G15 pretreatment versus OH-PBDE alone, wound-healing ([2]; 1μM OH-PBDEs, 10μM G15): significantly less cell migration
- cell migration after G15 pretreatment versus OH-PBDE alone, Boyden chamber ([3]; 1μM OH-PBDEs, 10μM G15): significantly less cell migration

Compound: CC(C)(c1ccc(O)cc1)c1ccc(O)cc1 [BPA, bisphenol A]
- RBA to human GPER compared to E2 [6]: 2.8%
- RBA to zebrafish GPER [9]: 15.8%

Compound: Oc1cccc(Oc2ccc(Br)cc2Br)c1 [3ʹ-OH-BDE-007, 3'-hydroxy-2,4-dibromodiphenyl ether]
- IC50 [4]: 2.6 µM
- RBA (relative binding affinity) [5, 12]: 10.0%

Compound: Brc1ccc(Oc2cc(Br)c(Br)cc2Br)c(Br)c1 [BDE-099, 2,2',4,4',5-pentabromodiphenyl ether]
- estrogen target genes in the uterus of female offspring ([10]; ref Ceccatelli et al. 2006): changes in the regulation of estrogen target genes
- sex steroid levels in male and female offspring ([10]; ref Lilienthal et al. 2006): decreases in sex steroid levels

Compound: Oc1c(Br)cc(Br)c(Oc2cc(Br)c(Br)cc2Br)c1Br [3ʹ-OH-BDE-154, 3'-hydroxy-2,2',4,4',5,6'-hexabromodiphenyl ether]
- LOECs, activation of GPER signaling pathways [7]: 10 to 100 nM
- LOEC, SKBR3 cell migration, wound-healing assay [2]: 100 nM
- LOECs, promotion of SKBR3 cell migration via GPER pathways [2]: 0.1 to 1 µM
- LOEC, SKBR3 cell migration, Boyden chamber assay [3]: 100 nM
- type of activity on ERα [8]: antagonists
- IC50 [4]: 1.3 µM

Compound: Brc1ccc(Oc2ccc(Br)cc2Br)c(Br)c1 [BDE-047, 2,2',4,4'-tetrabromodiphenyl ether]
- effect on migration of SH-SY5Y cells [11]: stimulated the migration

Compound: Oc1cc(Br)c(Oc2ccc(Br)cc2Br)cc1Br [4ʹ-OH-BDE-049, 4'-hydroxy-2,2',4,5'-tetrabromodiphenyl ether]
- LOECs, activation of GPER signaling pathways [7]: 10 to 100 nM
- LOEC, SKBR3 cell migration, wound-healing assay [2]: 1000 nM
- LOECs, promotion of SKBR3 cell migration via GPER pathways [2]: 0.1 to 1 µM
- LOEC, SKBR3 cell migration, Boyden chamber assay ([3]; text: same LOECs as for the wound-healing assay): 1000 nM
- IC50 [4]: 2.8 µM
- RBA (relative binding affinity) [5, 12]: 9.3%

- IC50 [4]: 20 µM
- RBA (relative binding affinity) [5, 12]: 1.3%
Compound: Oc1ccccc1Oc1ccc(Br)cc1 [2ʹ-OH-BDE-003, 2'-hydroxy-4-monobromodiphenyl ether]

Compound: Oc1c(Br)cc(Br)c(Oc2ccc(Br)cc2Br)c1Br [3-OH-BDE-100, 3-hydroxy-2,2',4,4',6-pentabromodiphenyl ether]
- significant dose-dependent increase in calcium mobilization compared to control [7]: exceptions
- significant dose-dependent increase in cAMP production compared to control [1]: exceptions
- type of activity on ERα [8]: antagonists
- IC50 [4]: 3.6 µM
- RBA (relative binding affinity) [5]: 7.2%

Compound: nonylphenol
- RBA to human GPER compared to E2 [6]: 1.3–13.4%

Compound: Clc1ccc(C(c2ccccc2Cl)C(Cl)Cl)cc1 (stereo not drawn) [2-(2-chlorophenyl)-2-(4-chlorophenyl)-1,1-dichloroethane]
- RBA to human GPER compared to E2 [6]: 0.2–1.3%

Compound: Clc1ccc(C(c2ccc(Cl)cc2)C(Cl)(Cl)Cl)cc1 [2,2-bis(p-chlorophenyl)-1,1,1-trichloroethane]
- RBA to human GPER compared to E2 [6]: 0.2–1.3%

Compound: O=c1c(-c2ccc(O)cc2)coc2cc(O)cc(O)c12 [genistein]
- RBA to human GPER compared to E2 [6]: 1.3–13.4%

Compound: Oc1c(Br)ccc(Oc2ccc(Br)cc2Br)c1Br [3-OH-BDE-047, 3-hydroxy-2,2',4,4'-tetrabromodiphenyl ether]
- significant dose-dependent increase in calcium mobilization compared to control [7]: exceptions
- significant dose-dependent increase in cAMP production compared to control [1]: exceptions
- IC50 [5]: 12 µM
- RBA (relative binding affinity) [5]: 2.2%

Compound: Oc1ccc(-c2cc(Cl)ccc2Cl)c(Cl)c1 [4-hydroxy-2,2ʹ,5ʹ-trichloro-biphenyl]
- RBA to human GPER compared to E2 [6]: 0.2–1.3%

Compound: Oc1c(Br)c(Br)c(Oc2cc(Br)c(Br)cc2Br)c(Br)c1Br [4-OH-BDE-187, 4-hydroxy-2,2',3,4',5,5',6-heptabromodiphenyl ether]
- IC50 [4]: 6.2 µM
- RBA (relative binding affinity) [5, 12]: 4.2%

Compound: Oc1cc(Oc2ccc(Br)cc2Br)ccc1Br [3ʹ-OH-BDE-028, 3'-hydroxy-2,4,4'-tribromodiphenyl ether]
- IC50 [4]: 3 µM
- RBA (relative binding affinity) [5, 12]: 8.7%
